Laboratory results: PubChem BioAssay AID1794801 (Yongcheng Song lab at Baylor College of Medicine, 2022)
The source made the active and inactive calls.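 Rule for the calls: active = compounds that disrupt AF9 binding to the DOT1L peptide with an IC50 under 30 µM; inactive = the rest.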

What follows are molecules tested against Protein AF-9 (Homo sapiens) (UniProt P42568) (assay: inhibitors of AF9 AHD–DOT1L interaction, dose response, biochemical, AlphaLISA, MBP-tagged AHD, biotinylated peptide (AID 1794801)). Conditions: MBP-AF9 AHD and biotin-DOT1L peptide.
Chain of Protein AF-9 (Homo sapiens) (P42568 whole entry, looked up): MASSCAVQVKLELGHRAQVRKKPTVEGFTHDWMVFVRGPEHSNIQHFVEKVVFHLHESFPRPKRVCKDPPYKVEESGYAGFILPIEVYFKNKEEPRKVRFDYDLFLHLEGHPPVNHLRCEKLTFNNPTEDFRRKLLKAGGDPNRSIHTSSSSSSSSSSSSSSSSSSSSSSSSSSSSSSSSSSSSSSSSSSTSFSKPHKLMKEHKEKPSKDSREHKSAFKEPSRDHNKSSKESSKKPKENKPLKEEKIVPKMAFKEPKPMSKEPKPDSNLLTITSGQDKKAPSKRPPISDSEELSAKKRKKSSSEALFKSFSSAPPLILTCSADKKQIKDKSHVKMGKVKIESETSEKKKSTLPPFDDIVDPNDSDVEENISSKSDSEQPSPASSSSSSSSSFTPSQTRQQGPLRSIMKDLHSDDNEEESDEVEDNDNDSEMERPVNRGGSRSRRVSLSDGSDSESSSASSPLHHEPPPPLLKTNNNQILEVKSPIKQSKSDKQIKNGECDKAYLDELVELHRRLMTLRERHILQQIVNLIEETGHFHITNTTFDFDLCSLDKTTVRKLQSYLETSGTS

Row | IC50 | Compound
1 | 4.6 µM | O=C(NCC1CCNCC1)c1cc2ccc(Nc3ccc(N4CCCCC4)cc3)cc2o1
2 | 2.5 µM | O=C(NCC1CCNCC1)c1cc2cc(-c3ccc(N4CCCCC4)cc3)ccc2s1
3 | 2.3 µM | O=C(NCC1CCNCC1)c1cc2ccc(Nc3ccc(N4CCCCC4)cc3)cc2s1
4 | 1.6 µM | O=C(NCC1CCNCC1)c1cc2ccc(-c3ccc(N4CCCCC4)cc3)cc2s1
5 | 2.9 µM | O=C(NCC1CCNCC1)c1c[nH]c2cc(-c3ccc(N4CCCC4)cc3)ccc12
6 | > 30 µM (inactive) | O=C(NCC1CCNCC1)c1cc2cc(-c3cn[nH]c3)ccc2[nH]1
7 | 2.8 µM | O=C(NCC1CCNCC1)c1cc2ccc(-c3ccc(N4CCCC4)cc3)cc2[nH]1
8 | 2.7 µM | O=C(NCC1CCNCC1)c1cc2cc(-c3ccc(N4CCCC4)cc3)ccc2[nH]1
9 | 4.5 µM | O=C(NCC1CCNCC1)c1c[nH]c2cc(-c3ccc(N4CCCCC4)cc3)ccc12
10 | 3.3 µM | O=C(NCC1CCNCC1)c1cc2ccc(-c3ccc(N4CCCCC4)cc3)cc2[nH]1
11 | 3.6 µM | O=C(NCC1CCNCC1)c1cc2cc(-c3ccc(N4CCCCC4)cc3)ccc2[nH]1
12 | > 30 µM (inactive) | NCc1ccc(-c2ccc3cc(C(=O)NCC4CCNCC4)oc3c2)cc1
13 | 5.3 µM | O=C(NCC1CCNCC1)c1cc2ccc(-c3ccc(N4CCCC4)cc3)cc2s1
